Data from US9540389B2, “Antimicrobial potentiators” (priority 2013, dated 2017).

Columns and labels:
P. aeruginosa ATCC 27853 = assay: MIC assay (microbroth dilution) ± 25 μM EPI; assay type: cell-based, Pseudomonas aeruginosa; conditions: for MIC (μg/ml) ± EPI: PAβN: + 25 μM PAβN; for MIC: Pseudomonas aeruginosa, ATCC27853, no EPI, read-out: MIC (μg/ml) ± EPI: None
From the text: (§1) • Strains and Reagents. The following strains were obtained from the Keio collection (Baba, et al.: Construction of Escherichia coli K-12 in-frame, single-gene knockout mutants: the Keio collection. In Mol Syst Biol, vol. 2, pp. 2006 0008, (2006)): JW0451 (ΔacrB::kan), JW5503 (ΔtolC::kan), JW3234 (ΔacrF::kan), JW2661 (ΔemrB::kan), JW0863 (ΔmacB::kan). The deletion mutations in each of these strains were transferred to AB1157 using P1 phage transduction (see Table 1). The construction of the E. coli cell-based reporter strain (SOS-XXX) that was used for high throughput screening is described in detail in the supplementary information. […] Irgasan was a generous gift from Ciba Speciality Chemicals, Inc. (High Point, N.C.). Hoechst 33342 (H33342) was purchased from Molecular Probes (Eugene, Oreg.). […] Luria Broth (Miller) and agar were purchased as prepared dehydrated media from Becton Dickenson (Franklin Lakes, N.J.). The compound libraries used in high-throughput screens were purchased from Chembridge (San Diego, Calif.), ChemDiv (San Diego, Calif.), and TimTec (Newark, Del.). MBX2319 was synthesized by Microbiotix, Inc. • Antibacterial Activity Assays. The minimal inhibitory concentration (MIC) of antibacterial agents and biocides were determined using the microbroth dilution method essentially as described in the CLSI protocol M7-A7 (CLSI: Method for dilution antimicrobial susceptibility testing for bacteria that grow aerobically; Approved standard-document M7-A7. In Clinical and Laboratory Standards Institute document M7-A7, Clinical and Laboratory Standards Institute, Wayne, Pa., (2006)), with the following exceptions. LB media was used instead of MHB. […] The final concentration of DMSO in each assay was 2%. […] MIC assays were performed in triplicate and the geometric mean was calculated. Checkerboard MIC assays using an EPI and an antibacterial agent were performed essentially as described (Pillai, et al.: Antimicrobial Combinations. In Antibiotics in Laboratory Medicine, ed. by V. Lorian, pp. 365-440, Lippincott Williams & Wilkins, Philadelphia, Pa., (2005)), with the same modifications used for the MIC assays described above. • Time-Kill Assays. Killing curve assays were performed essentially as described (Pillai, et al.: Antimicrobial Combinations. In Antibiotics in Laboratory Medicine, ed. by V. Lorian, pp. 365-440, Lippincott Williams & Wilkins, Philadelphia, Pa., (2005)). Exponential bacterial cultures grown in LB were diluted to a cell density of ˜1×10^7 in LB followed by addition of CIP and/or an EPI. Viability was monitored over 2-4 hours by making serial dilutions in saline and spotting 5 μl of each dilution onto the surface of an LB agar plate in triplicate. Colonies were counted after the plates were incubated at 37° C. for 16-18 hr, colony forming units (CFU) per ml were calculated, and the average and standard deviation for the three replicates was determined. For treatments that decreased CFU/ml below the limit of detection for the spot plating method, the 100 μl samples were diluted into 5 ml LB top agar, were poured onto LB agar plates, and incubated for 18 hr at 37° C. To calculate the fraction of the control for each sample, the average CFU/ml values for treated samples were divided by those from the same sample at 0 h (time=0). Each experiment was repeated at least three times, and a representative experiment is shown. • H33342 Accumulation Assay. The rate of accumulation of the fluorescent dye Hoechst 33342 (H33342), which is a substrate of a wide variety of bacterial efflux pumps (van den Berg van Saparoea, et al., Biochemistry, vol. 44, pp. 16931-16938, (2005)), can be used to estimate the activity of the major efflux pumps in E. coli and many other bacterial species. The H33342 accumulation assay was used to evaluate the effect of EPIs on the activity of the AcrAB-TolC efflux pump in several bacterial species essentially as described (Coldham, et al., J Antimicrob Chemother, vol. 65, pp. 1655-1663, (2010)). […]

Escherichia coli 331 = assay: MIC assay (microbroth dilution) ± 25 μM EPI; assay type: cell-based; conditions: E. coli 331; for MIC (μg/ml) ± EPI: MBX2319: + 25 μM MBX2319; for MIC (μg/ml) ± EPI: PAβN: + 25 μM PAβN
From the text: as §1

[1] = system: Escherichia coli ATCC 25922; assay: MIC assay (microbroth dilution) ± 25 μM EPI; assay type: cell-based; conditions: for MIC (μg/ml) ± EPI: MBX2319 / MIC (μg/ml) ± EPI: PAβN: E. coli ATCC 25922; for MIC (μg/ml) ± EPI: MBX2319: + 25 μM MBX2319; for MIC (μg/ml) ± EPI: PAβN: + 25 μM PAβN
From the text: as §1

[2] = system: Enterobacter aerogenes ATCC 13048; assay: MIC assay (microbroth dilution) ± 25 μM EPI; assay type: cell-based; conditions: for MIC (μg/ml) ± EPI: MBX2319: + 25 μM MBX2319; for MIC (μg/ml) ± EPI: PAβN: + 25 μM PAβN; for MIC: Klebsiella aerogenes, ATCC13048, no EPI, read-out: MIC (μg/ml) ± EPI: None
From the text: as §1

[3] = system: Shigella flexneri ATCC 12022; assay: MIC assay (microbroth dilution) ± 25 μM EPI; assay type: cell-based; conditions: for MIC (μg/ml) ± EPI: PAβN: + 25 μM PAβN; for MIC: Shigella flexneri, ATCC12022, read-out: MIC (μg/ml) ± EPI: None
From the text: as §1

Escherichia coli AB1157 = assay: MIC assay (microbroth dilution) ± 25 μM EPI; assay type: cell-based; conditions: for MICs (μg/ml) ± EPIs: PAβN: + 25 μM PAβN
From the text: as §1

[4] = system: Salmonella enterica ATCC 14028; assay: MIC assay (microbroth dilution) ± 25 μM EPI; assay type: cell-based; conditions: for MIC (μg/ml) ± EPI: MBX2319: + 25 μM MBX2319; for MIC (μg/ml) ± EPI: PAβN: + 25 μM PAβN; for MIC: ATCC14028, no EPI, read-out: MIC (μg/ml) ± EPI: None
From the text: as §1

[5] = system: Klebsiella pneumoniae ATCC 700603; assay: MIC assay (microbroth dilution) ± 25 μM EPI; assay type: cell-based; conditions: for MIC (μg/ml) ± EPI: MBX2319: + 25 μM MBX2319; for MIC (μg/ml) ± EPI: PAβN: + 25 μM PAβN; for MIC: ATCC700603, no EPI, read-out: MIC (μg/ml) ± EPI: None
From the text: as §1

[6] = system: Escherichia coli 287 (AB1157, CIPR, overexpresses efflux); assay: microbe, parasite or virus in culture; assay type: cell-based
From the text: as §1

[7] = system: Escherichia coli 285 (AB1157, CIPR, overexpresses efflux); assay: microbe, parasite or virus in culture; assay type: cell-based
From the text: as §1

[8] = E. coli AB1157 (WT), geometric mean
[9] = Escherichia coli, read-out: MIC (μg/ml) with MBX2319 at concn (μM) of: 0

Structure (SMILES) | MIC (μg/ml) ± EPI: PAβN (P. aeruginosa ATCC 27853) [µg/mL] | MIC (P. aeruginosa ATCC 27853) [µg/mL] | MIC (μg/ml) ± EPI: MBX2319 (Escherichia coli 331) [µg/mL] | MIC (μg/ml) ± EPI: PAβN (Escherichia coli 331) [µg/mL] | MIC (μg/ml) ± EPI: MBX2319 [1] [µg/mL] | MIC (μg/ml) ± EPI: PAβN [1] [µg/mL] | MIC (μg/ml) ± EPI: MBX2319 [2] [µg/mL] | MIC (μg/ml) ± EPI: PAβN [2] [µg/mL] | MIC [2] [µg/mL] | MIC (μg/ml) ± EPI: PAβN ([3]; Shigella flexneri ATCC 12022) [µg/mL] | MIC [3] [µg/mL] | MICs (μg/ml) ± EPIs: PAβN (Escherichia coli AB1157; [8]) [µg/mL] | MIC (μg/ml) ± EPI: MBX2319 [4] [µg/mL] | MIC (μg/ml) ± EPI: PAβN [4] [µg/mL] | MIC [4] [µg/mL] | MIC (μg/ml) ± EPI: MBX2319 [5] [µg/mL] | MIC (μg/ml) ± EPI: PAβN [5] [µg/mL] | MIC [5] [µg/mL] | also measured
O=C(O)c1cn(C2CC2)c2cc(N3CCNCC3)c(F)cc2c1=O [Ciprofloxacin] | 0.149 | 0.21 | 32 | 128 | 0.005 | 0.022 | 0.008 | 0.031 | 0.037 | 0.031 | 0.031 | 0.031 | 0.008 | 0.044 | 0.031 | 0.088 | 0.25 | 0.29 | MIC (Escherichia coli 331; Escherichia coli, no EPI, read-out: MIC (μg/ml) ± EPI: None): 128 µg/mL
CO/N=C(\C(=O)N[C@@H]1C(=O)N2C(C(=O)O)=C(COC(C)=O)CS[C@H]12)c1csc(N)n1 [CEF, cefotaxime] | 19 | 53.8 | 0.031 | 0.353 | 0.063 | 0.25 | 2.4 | 6.7 | 2 | 0.063 | 0.063 | 0.25 | 0.063 | 0.297 | 0.21 | 8 | 8 | 8 | MIC (μg/ml) ± EPI: MBX2319 (P. aeruginosa ATCC 27853; + 25 μM MBX2319): 8 µg/mL; MIC (μg/ml) with MBX2319 at concn (μM) of: 6.25 ([6]; 287, MBX2319 6.25 μM): 0.063 µg/mL; MIC (μg/ml) with MBX2319 at concn (μM) of: 25 ([6]; 287, MBX2319 25 μM): 0.063 µg/mL; MIC (μg/ml) with MBX2319 at concn (μM) of: 50 ([6]; 287, MBX2319 50 μM): 0.063 µg/mL; MIC [6, 9]: 0.25 µg/mL; MIC (μg/ml) with MBX2319 at concn (μM) of: 3.13 ([7]; 285, MBX2319 3.13 μM): 0.063 µg/mL; MIC (μg/ml) with MBX2319 at concn (μM) of: 6.25 ([7]; 285, MBX2319 6.25 μM): 0.063 µg/mL; MIC (μg/ml) with MBX2319 at concn (μM) of: 25 ([7]; 285, MBX2319 25 μM): 0.031 µg/mL; MIC (μg/ml) with MBX2319 at concn (μM) of: 50 ([7]; 285, MBX2319 50 μM): 0.031 µg/mL; MIC [7, 9]: 0.25 µg/mL; MIC ([1]; Escherichia coli, ATCC25922, read-out: MIC (μg/ml) ± EPI: None): 0.074 µg/mL; MIC (μg/ml) ± EPI: MBX2319 ([3]; Shigella flexneri ATCC 12022, + 25 μM MBX2319): 0.031 µg/mL; MICs (μg/ml) ± EPIs: MBX2319 (Escherichia coli AB1157; E. coli AB1157 (WT), + 25 μM MBX2319, geometric mean): 0.022 µg/mL; MIC (Escherichia coli AB1157; Escherichia coli, AB1157, read-out: MICs (μg/ml) ± EPIs: None): 0.1 µg/mL
